Laboratory results: US12459932B2, “KIF18A inhibitors” (AMGEN INC., priority 2018, dated 2025)

These compounds were tested against T1, Recombinant human KIF18A (1-467 His-tagged) (Homo sapiens, UniProt Q8NI77) (assay: KIF18A Enzyme Assay: microtubule-stimulated ATPase activity (ADP-Glo)). Conditions: 30 nM KIF18A, 30 μg/mL pig microtubules, ATP 75 μM (Km), ADP-Glo luminescence.
T1 construct: Recombinant human KIF18A (1-467 His-tagged) protein; His
Format: biochemical
Outline: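 Measures microtubule-stimulated ATPase activity as ADP formed, detected by luminescence. Compounds were tested as 2-fold serial dilutions over 22 points. IC50 values came from four-parameter logistic fits.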

T1 sequence (Q8NI77 1-467): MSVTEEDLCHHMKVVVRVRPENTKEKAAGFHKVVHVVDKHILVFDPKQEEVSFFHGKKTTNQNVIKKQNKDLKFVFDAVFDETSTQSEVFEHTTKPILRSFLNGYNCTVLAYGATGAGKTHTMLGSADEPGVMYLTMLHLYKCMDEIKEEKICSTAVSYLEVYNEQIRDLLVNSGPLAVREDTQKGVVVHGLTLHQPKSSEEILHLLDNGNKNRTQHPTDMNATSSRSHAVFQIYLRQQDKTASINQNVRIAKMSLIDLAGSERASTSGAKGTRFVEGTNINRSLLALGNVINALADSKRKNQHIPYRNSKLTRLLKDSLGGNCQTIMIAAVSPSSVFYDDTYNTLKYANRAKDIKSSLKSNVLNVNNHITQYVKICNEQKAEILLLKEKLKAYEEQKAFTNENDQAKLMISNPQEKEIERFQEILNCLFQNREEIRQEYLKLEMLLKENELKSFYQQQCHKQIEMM
T1 sequence (P02550 whole entry partner): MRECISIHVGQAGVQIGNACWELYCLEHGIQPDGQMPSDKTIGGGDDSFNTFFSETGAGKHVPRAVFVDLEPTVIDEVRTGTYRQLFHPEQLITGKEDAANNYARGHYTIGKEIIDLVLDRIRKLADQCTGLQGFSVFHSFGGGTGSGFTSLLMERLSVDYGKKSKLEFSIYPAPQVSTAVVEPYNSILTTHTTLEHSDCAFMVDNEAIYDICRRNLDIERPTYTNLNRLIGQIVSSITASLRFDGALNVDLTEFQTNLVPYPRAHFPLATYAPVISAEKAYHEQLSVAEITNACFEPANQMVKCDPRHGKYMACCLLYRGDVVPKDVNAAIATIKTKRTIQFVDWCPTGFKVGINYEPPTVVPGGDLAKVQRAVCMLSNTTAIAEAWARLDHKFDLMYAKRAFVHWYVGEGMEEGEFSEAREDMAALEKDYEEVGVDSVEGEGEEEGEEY
T1 sequence (P02554 whole entry partner): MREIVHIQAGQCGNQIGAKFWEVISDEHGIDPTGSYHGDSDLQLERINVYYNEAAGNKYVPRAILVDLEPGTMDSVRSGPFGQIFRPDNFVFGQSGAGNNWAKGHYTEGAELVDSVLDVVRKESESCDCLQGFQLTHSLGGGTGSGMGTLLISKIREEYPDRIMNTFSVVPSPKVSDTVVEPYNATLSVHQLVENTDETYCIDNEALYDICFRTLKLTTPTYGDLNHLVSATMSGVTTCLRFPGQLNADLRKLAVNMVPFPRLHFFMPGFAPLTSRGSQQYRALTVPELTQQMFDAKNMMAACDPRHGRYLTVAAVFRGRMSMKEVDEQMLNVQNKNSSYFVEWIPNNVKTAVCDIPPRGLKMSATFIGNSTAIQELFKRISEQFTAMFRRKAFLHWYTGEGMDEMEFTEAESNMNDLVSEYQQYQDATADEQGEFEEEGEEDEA

Row | SMILES | IC50 [nM]
1 | CS(=O)(=O)Cc1ccc(C(=O)Nc2cccc(N3CCC[C@@H](O)C3)n2)c(N2CCC3(CC2)CC3)c1 [Example 4, (R)-N-(6-(3-hydroxypiperidin-1-yl)pyridin-2-yl)-4-((methylsulfonyl)methyl)-2-(6-azaspiro[2.5]octan-6-yl)benzamide] | 94
2 | CC(C)(O)c1cccc(NC(=O)c2ccc(NS(=O)(=O)C3(C)CC3)cc2N2CCC3(CC2)CC3)n1 [Example 4-1, N-(6-(2-Hydroxypropan-2-yl)pyridin-2-yl)-4-((1-methylcyclopropane)-1-sulfonamido)-2-(6-azaspiro[2.5]octan-6-yl)benzamide] | 128
3 | CC1(NS(=O)(=O)c2ccc(C(=O)Nc3cccc(C(C)(C)O)n3)c(N3CCC4(CC3)CC4)c2)COC1 [Example 4-2, N-(6-(2-Hydroxypropan-2-yl)pyridin-2-yl)-4-(N-(3-methyloxetan-3-yl)sulfamoyl)-2-(6-azaspiro[2.5]octan-6-yl)benzamide] | 80
4 | CS(=O)(=O)c1ccc(C(=O)Nc2cccc(C3CC3)n2)c(N2CCC3(CC2)CC3)c1 [Example 4-4, N-(6-Cyclopropylpyridin-2-yl)-4-(methylsulfonyl)-2-(6-azaspiro[2.5]octan-6-yl)benzamide] | 180
5 | CC(C)c1cccc(NC(=O)c2ccc(S(C)(=O)=O)cc2N2CCC3(CC2)CC3)n1 [Example 4-5, N-(6-Isopropylpyridin-2-yl)-4-(methylsulfonyl)-2-(6-azaspiro[2.5]octan-6-yl)benzamide] | 179
6 | CC(C)(C)c1cccc(NC(=O)c2ccc(S(C)(=O)=O)cc2N2CCC3(CC2)CC3)n1 [Example 4-6, N-(6-(tert-Butyl)pyridin-2-yl)-4-(methylsulfonyl)-2-(6-azaspiro[2.5]octan-6-yl)benzamide] | 166
7 | CC(C)(O)c1cccc(NC(=O)c2ccc(S(C)(=O)=O)cc2N2CCC3(CC2)CC3)n1 [Example 4-7, N-(6-(2-Hydroxypropan-2-yl)pyridin-2-yl)-4-(methylsulfonyl)-2-(6-azaspiro[2.5]octan-6-yl)benzamide] | 315
8 | CC(C)(C)NS(=O)(=O)c1cccc(NC(=O)c2ccc(S(C)(=O)=O)cc2N2CCC3(CC2)CC3)n1 [Example 4-8, N-(6-(N-(tert-Butyl)sulfamoyl)pyridin-2-yl)-4-(methylsulfonyl)-2-(6-azaspiro[2.5]octan-6-yl)benzamide] | 76
9 | CC1(S(=O)(=O)Nc2ccc(C(=O)Nc3cccc(N4CCC(F)(F)CC4)n3)c(N3CCC4(CC3)CC4)c2)CC1 [Example 4-9, N-(6-(4,4-Difluoropiperidin-1-yl)pyridin-2-yl)-4-((1-methylcyclopropane)-1-sulfonamido)-2-(6-azaspiro[2.5]octan-6-yl)benzamide] | 46
10 | Cc1cc(NC(=O)c2ccc(NS(=O)(=O)C3(C)CC3)cc2N2CCC3(CC2)CC3)nc(N2CCC(F)(F)CC2)c1 [Example 4-10, N-(6-(4,4-Difluoropiperidin-1-yl)-4-methylpyridin-2-yl)-4-((1-methylcyclopropane)-1-sulfonamido)-2-(6-azaspiro[2.5]octan-6-yl)benzamide] | 95
11 | Cc1cc(NC(=O)c2ccc(CS(C)(=O)=O)cc2N2CCC3(CC2)CC3)nc(N2CCOCC2)c1 [Example 4-16, N-(4-Methyl-6-morpholinopyridin-2-yl)-4-((methylsulfonyl)methyl)-2-(6-azaspiro[2.5]octan-6-yl)benzamide] | 145
12 | Cc1cc(NC(=O)c2ccc(NS(=O)(=O)C3(C)CC3)cc2N2CCC3(CC2)CC3)nc(C(C)(C)O)c1 [Example 4-17, N-(6-(2-Hydroxypropan-2-yl)-4-methylpyridin-2-yl)-4-((1-methylcyclopropane)-1-sulfonamido)-2-(6-azaspiro[2.5]octan-6-yl)benzamide] | 163
13 | Cc1cc(NC(=O)c2ccc(S(=O)(=O)NC3(C)COC3)cc2N2CCC3(CC2)CC3)nc(C(C)(C)O)c1 [Example 4-18, N-(6-(2-Hydroxypropan-2-yl)-4-methylpyridin-2-yl)-4-(N-(3-methyloxetan-3-yl)sulfamoyl)-2-(6-azaspiro[2.5]octan-6-yl)benzamide] | 89
14 | O=C(Nc1cccc(OCCC(F)(F)F)n1)c1ccc(NS(=O)(=O)CCO)cc1N1CCC2(CC1)CC2 [Example 5, 4-((2-Hydroxyethyl)sulfonamido)-2-(6-azaspiro[2.5]octan-6-yl)-N-(6-(3,3,3-trifluoropropoxy)pyridin-2-yl)benzamide] | 25
15 | Cc1cc(NC(=O)c2ccc(NS(=O)(=O)CCO)cc2N2CCC3(CC2)CC3)nc(N2CCC(F)(F)CC2)c1 [Example 6, N-(6-(4,4-Difluoropiperidin-1-yl)-4-methylpyridin-2-yl)-4-((2-hydroxyethyl)sulfonamido)-2-(6-azaspiro[2.5]octan-6-yl)benzamide] | 47
16 | Cc1cc(NC(=O)c2ccc(NS(=O)(=O)CCO)cc2N2CCC3(CC2)CC3)nc(C2CC(F)(F)C2)c1 [Example 7-1, N-(6-(3,3-Difluorocyclobutyl)-4-methylpyridin-2-yl)-4-((2-hydroxyethyl)sulfonamido)-2-(6-azaspiro[2.5]octan-6-yl)benzamide] | 45

Other lines, results leading:

Row | IC50 [nM] | SMILES
17 | 86 | CC(C)(C)NS(=O)(=O)c1ccc(C(=O)Nc2cccc(N3CCO[C@H](CO)C3)n2)c(N2CCC3(CC2)CC3)c1 [Example 4-3, (S)-4-(N-(tert-Butyl)sulfamoyl)-N-(6-(2-(hydroxymethyl)morpholino)pyridin-2-yl)-2-(6-azaspiro[2.5]octan-6-yl)benzamide]
18 | 43 | C[C@@H]1CN(c2cccc(NC(=O)c3ccc(S(=O)(=O)NC4(C)COC4)cc3N3CCC4(CC3)CC4)n2)CCO1 [Example 4-11, (R)-N-(6-(2-Methylmorpholino)pyridin-2-yl)-4-(N-(3-methyloxetan-3-yl)sulfamoyl)-2-(6-azaspiro[2.5]octan-6-yl)benzamide]
19 | 118 | CS(=O)(=O)c1ccc(C(=O)Nc2cccc(N3CCOCC3)n2)c(N2CCC3(CC2)CC3)c1 [Example 4-12, 4-(Methylsulfonyl)-N-(6-morpholinopyridin-2-yl)-2-(6-azaspiro[2.5]octan-6-yl)benzamide]
20 | 69 | C[C@@H]1CN(c2cccc(NC(=O)c3ccc(S(C)(=O)=O)cc3N3CCC4(CC3)CC4)n2)CCO1 [Example 4-13, (R)-N-(6-(2-Methylmorpholino)pyridin-2-yl)-4-(methylsulfonyl)-2-(6-azaspiro[2.5]octan-6-yl)benzamide]
21 | 66 | C[C@@H]1CN(c2cccc(NC(=O)c3ccc(NS(=O)(=O)C4(C)CC4)cc3N3CCC4(CC3)CC4)n2)CCO1 [Example 4-14, (R)-4-((1-Methylcyclopropane)-1-sulfonamido)-N-(6-(2-methylmorpholino)pyridin-2-yl)-2-(6-azaspiro[2.5]octan-6-yl)benzamide]
22 | 85 | C[C@@H]1CN(c2cccc(NC(=O)c3ccc(CS(C)(=O)=O)cc3N3CCC4(CC3)CC4)n2)CCO1 [Example 4-15, (R)-N-(6-(2-Methylmorpholino)pyridin-2-yl)-4-((methylsulfonyl)methyl)-2-(6-azaspiro[2.5]octan-6-yl)benzamide]
23 | 39 | C[C@@H]1CN(c2cccc(NC(=O)c3ccc(NS(C)(=O)=O)cc3N3CCC4(CC3)CC4)n2)CCO1 [Example 7-2, (R)-N-(6-(2-Methylmorpholino)pyridin-2-yl)-4-(methylsulfonamido)-2-(6-azaspiro[2.5]octan-6-yl)benzamide]
24 | 76 | C[C@@H]1CN(c2cccc(NC(=O)c3ccc(N4CCCS4(=O)=O)cc3N3CCC4(CC3)CC4)n2)CCO1 [Example 7-3, (R)-4-(1,1-Dioxidoisothiazolidin-2-yl)-N-(6-(2-methylmorpholino)pyridin-2-yl)-2-(6-azaspiro[2.5]octan-6-yl)benzamide]
25 | 287 | C[C@@H]1CN(c2cccc(NC(=O)c3ccc(N4CCNS4(=O)=O)cc3N3CCC4(CC3)CC4)n2)CCO1 [Example 7-4, (R)-4-(1,1-Dioxido-1,2,5-thiadiazolidin-2-yl)-N-(6-(2-methylmorpholino)pyridin-2-yl)-2-(6-azaspiro[2.5]octan-6-yl)benzamide]
26 | 55 | C[C@@H]1CN(c2cccc(NC(=O)c3ccc(NS(=O)(=O)N(C)C)cc3N3CCC4(CC3)CC4)n2)CCO1 [Example 7-5, (R)-4-((N,N-Dimethylsulfamoyl)amino)-N-(6-(2-methylmorpholino)pyridin-2-yl)-2-(6-azaspiro[2.5]octan-6-yl)benzamide]
27 | 98 | C[C@@H]1CN(c2cccc(NC(=O)c3ccc(N4CCS4(=O)=O)cc3N3CCC4(CC3)CC4)n2)CCO1 [Example 7-6, (R)-4-(1,1-Dioxido-1,2-thiazetidin-2-yl)-N-(6-(2-methylmorpholino)pyridin-2-yl)-2-(6-azaspiro[2.5]octan-6-yl)benzamide]
28 | 49 | C[C@@H]1CN(c2cccc(NC(=O)c3ccc(NS(=O)(=O)C(F)F)cc3N3CCC4(CC3)CC4)n2)CCO1 [Example 7-7, (R)-4-((Difluoromethyl)sulfonamido)-N-(6-(2-methylmorpholino)pyridin-2-yl)-2-(6-azaspiro[2.5]octan-6-yl)benzamide]
29 | 72 | CCS(=O)(=O)Nc1ccc(C(=O)Nc2cc(C)cc(N3CCO[C@H](C)C3)n2)c(N2CCC3(CC2)CC3)c1 [Example 7-8, (R)-4-(Ethylsulfonamido)-N-(4-methyl-6-(2-methylmorpholino)pyridin-2-yl)-2-(6-azaspiro[2.5]octan-6-yl)benzamide]
30 | 62 | C[C@@H]1CN(c2cccc(NC(=O)c3ccc(NS(=O)(=O)C4CCC4)cc3N3CCC4(CC3)CC4)n2)CCO1 [Example 7-9, (R)-4-(Cyclobutanesulfonamido)-N-(6-(2-methylmorpholino)pyridin-2-yl)-2-(6-azaspiro[2.5]octan-6-yl)benzamide]
31 | 63 | C[C@@H]1CN(c2cccc(NC(=O)c3ccc(NS(=O)(=O)C4COC4)cc3N3CCC4(CC3)CC4)n2)CCO1 [Example 7-10, (R)-N-(6-(2-Methylmorpholino)pyridin-2-yl)-4-(oxetane-3-sulfonamido)-2-(6-azaspiro[2.5]octan-6-yl)benzamide]
